Results from patent US20070077283A1, “METHOD OF ENHANCING TRANSMUCOSAL DELIVERY OF THERAPEUTIC COMPOUNDS” (Nastech Pharmaceutical Company Inc., priority 2005, published 2007).

How the values were obtained:
[1] = tested on: human-derived tracheal/bronchial epithelial cells (EpiAirway Tissue Model); test: in vitro
Method: Normal, human-derived tracheal/bronchial epithelial cells will serve as the model cell system for assessing the lipids listed in Table 1. The cells are supplied by MatTek Corp. (Ashland, Mass.) as the EpiAirway™ Tissue Model. The cells are provided as a confluent monolayer on a Millipore Milicell-CM cell culture insert with a pore size of 0.4 μM, inner diameter of 0.8 cm and surface area of 0.6 cm^2 and comprised of transparent hydrophilic Teflon (PTFE). Upon receipt, the membranes are cultured in 1 ml basal media (phenol red-free and hydrocortisone-free Dulbecco's Modified Eagle's Media (DMEM) at 37° C./5% CO2 for 24-48 hours before use. Inserts are feed for each day of recovery.
The amount of cell death was assayed by measuring the loss of lactate dehydrogenase (LDH) from the cells using a CytoTox 96 Cytotoxicity Assay Kit (Promega Corp., Madison, Wis.). A treatment of 1% Octylphenolpoly(ethyleneglycolether)x (Triton X-100™) diluted in PBS was used as a lysis control. One percent Triton X-100™ mediated cell lysis was normalized to 100%. For basal-lateral LDH levels, triplicates of 50 μl of the basal media were loaded into a 96-well assay plate. For apical LDH levels, 150 μl of Epi-Cm was added to the apical side of each chamber and mixed by pipeting. One hundred and fifty microliters was then removed and diluted 2-fold prior to performing the LDH assay. All apical LDH assay were performed in triplicate and with 50 μl of the diluted test solution. Fresh, cell-free culture medium will be used as a blank. Total LDH levels were determined by lysing cells in a final concentration of 0.9% Triton-X100™. Fifty microliters of substrate solution was added to each well and the plates incubated for 30 minutes at room temperature in the dark. Following incubation, 50 μl of stop solution was added to each well and the plates read on an optical density plate reader at […]. Cytotoxicity was expressed as a percentage calculated by subtracting the average absorbance of the PBS control wells as the endogenously released LDH level and expressing that value relative to the average Triton-X100 control, which represents total LDH content. [formula] Osmolality
For the instant application, phosphate buffered saline (PBS) served as a negative control for both the TER assay and LDH (cytotoxicity) assay. […] TER measurements and LDH levels were taken immediately after a one hour treatment of the cultured cells with each lipid, unless specified otherwrise.
TER reduction was expressed as the percent decrease in TER value from time zero to one hour post-treatment. Thus, greater percent reduction in TER represents less electrical resistance across the epithelial cell monolayer and consequently greater epithelial cell permeation. Cytotoxicity (LDH levels) for each lipid was expressed as a percent of the LDH levels measured after Triton-X100 treatment of the cells. Triton-X100™ LDH levels were normalized to 100%.

[2] = tested on: human-derived tracheal/bronchial epithelial cells (EpiAirway Tissue Model); test: Transepithelial electrical resistance (TER) of an epithelial cell monolayer; format: cell-based; conditions: for activity at 1000 µM: Homo sapiens, Epithelial cell, 1 h, read-out: Mean % of Original TER Value
Method: Inserts are feed for each day of recovery. TER measurements were accomplished using the Endohm-12 Tissue Resistance Measurement Chamber connected to the EVOM Epithelial Voltohmmeter (World Precision Instruments, Sarasota, Fla.) with the electrode leads. The electrodes and a tissue culture blank insert were equilibrated for at least 20 minutes in MatTek medium with the power off prior to checking calibration. The background resistance was measured with 1.5 ml media in the Endohm tissue chamber and 300 μl media in the blank insert. The top electrode was adjusted so that it was close to, but not making contact with, the top surface of the insert membrane. Background resistance of the blank insert was about 5-20 ohms. […] TER values are a function of the surface area of the tissue. […] By this method of calculation, TER will be expressed as both Ohms*cm2 and percent original TER value. […] Several different lipid types (see Table 1) were screened to select for lipids that are capable of enhancing the permeation of a biological agent across an epithelial cell monolayer. […] A reduction in TER correlates with the ability to enhance the permeation of a molecule and biological agent across an epithelia.

[3] = tested on: human-derived tracheal/bronchial epithelial cells (EpiAirway Tissue Model); test: FITC-Dextran permeation assay across epithelial cell monolayer; format: cell-based; conditions: for Mean % FD3 Permeation: FITC-dextran 3000 (Table 4); for permeation of FD3 relative to negative controls: text summary of Table 4
Method: Each tissue insert was placed in an individual well containing 1 ml of MatTek basal media. On the apical surface of the inserts, 20 μl of test formulation was applied according to study design, and the samples were placed on a shaker (˜100 rpm) for 1.5 hours at 37° C. FITC-labeled dextran solution was added to inserts apically and a fluorescence measurement was taken from the basolateral media after the incubation period. Two hundred microliters of the basal media for each test formulation was transferred to a dark-wall fluorescent reading plate. Each test formulation was tested in triplicate. Fluorescent intensity was measured at 470 nM with the microplate fluorescence reader FLx800 (Bio-Tek Instruments, Inc., Winooski, Vt.). A FITC labeled dextran with a molecular weight of 3 kDA, 10 kDA, 20 kDA, 40 kDA, 70 kDA and/or 500 kDA was used to assess the ability of individual lipids to deliver a model protein across an epithelia.
Permeation is expressed as percent permeation and was calculated as follows: [formula] [formula] Terms
PBS and 0.3% Triton-X100™ served as […]. […] FD permeation was presented as the percent of FD that crossed from the apical side of the epithelial cell monolayer to the basolateral cell surface.

[4] = lipid 1000 μM, percent of Triton-X100 LDH levels
[5] = lipid 1000 μM, percent decrease in TER from time zero
[6] = lipid 125 μM, percent of Triton-X100 LDH levels
[7] = lipid 250 μM, percent of Triton-X100 LDH levels
[8] = lipid 500 μM, percent of Triton-X100 LDH levels
[9] = lipid 1000 μM, lower value = greater TER reduction (Table 4)
[10] = positive controls, concentration N/A (Special Sauce; 0.3% Triton-X100)
[11] = positive controls: Special Sauce 1X, 1% Triton (Table 4)

1,3-Di(3-sn-Phosphatidyl)-sn-Glycerol Disodium Salt [Cardiolipin (sodium salt)]
Cytotoxic Effect (LDH) 1 hr. Post-treatments [1, 4]: 21% | Mean TER Reduction 1 hr. Post-treatment [2, 5]: 32%

1-Alkyl-2-Acetoyl-sn-Glycero-3-Phosphocholine [Platelet-Activation Factor]
Cytotoxic Effect (LDH) 1 hr. Post-treatments [1, 4]: 19% | Mean TER Reduction 1 hr. Post-treatment [2, 5]: 35%

1-Alkyl-2-Hydroxy-sn-Glycero-3-Phosphocholine [Lyso-Platelet-Activation Factor]
Cytotoxic Effect (LDH) 1 hr. Post-treatments ([1]; lipid 62.5 μM, percent of Triton-X100 LDH levels): 2% | Cytotoxic Effect (LDH) 1 hr. Post-treatments [1, 6]: 3% | Cytotoxic Effect (LDH) 1 hr. Post-treatments [1, 7]: 6% | Cytotoxic Effect (LDH) 1 hr. Post-treatments [1, 8]: 22% | Cytotoxic Effect (LDH) 1 hr. Post-treatments [1, 4]: 34% | Mean TER Reduction 1 hr. Post-treatment ([2]; lipid 62.5 μM): 48% | Mean TER Reduction 1 hr. Post-treatment ([2]; lipid 125 μM): 23% | Mean TER Reduction 1 hr. Post-treatment ([2]; lipid 250 μM): 29% | Mean TER Reduction 1 hr. Post-treatment ([2]; lipid 500 μM): 61% | Mean TER Reduction 1 hr. Post-treatment [2, 5]: 84%

CCCCCCCCCCCCCCCCOC[C@H](COP(=O)(O)OCC[N+](C)(C)C)OCC [2-O-Ethyl-PAF, 1-O-Hexadecyl-2-O-Ethyl-sn-Glycero-3-Phosphorylcholine]
Mean % Relative Cytotoxic Effect (LDH) ([1]; lipid 500 μM (Table 4)): 1% | Mean % Relative Cytotoxic Effect (LDH) ([1]; lipid 1000 μM (Table 4)): 2% | Mean % FD3 Permeation ([3]; lipid 500 μM): 1% | Mean % FD3 Permeation ([3]; lipid 1000 μM): 2% | permeation of FD3 relative to negative controls [3]: enhanced the permeation of FD3 above that of the negative controls | Mean % of Original TER Value ([2]; lipid 500 μM (Table 4)): 112% | Mean % of Original TER Value [2, 9]: 70%

CCCCCCCCCCCCCCCCOC[C@H](COP(=O)(O)OCC[N+](C)(C)C)OC [2-O-Methyl-PAF, 1-O-Hexadecyl-2-O-Methyl-sn-Glycero-3-Phosphorylcholine]
Mean % Relative Cytotoxic Effect (LDH) ([1]; lipid 500 μM (Table 4)): 18% | Mean % Relative Cytotoxic Effect (LDH) ([1]; lipid 1000 μM (Table 4)): 20% | Mean % FD3 Permeation ([3]; lipid 500 μM): 7% | Mean % FD3 Permeation ([3]; lipid 1000 μM): 16% | permeation of FD3 relative to negative controls [3]: enhanced the permeation of FD3 above that of the negative controls | Mean % of Original TER Value ([2]; lipid 500 μM (Table 4)): 8% | Mean % of Original TER Value [2, 9]: 2%

CCCCCCCCCCCCCCCC(=O)OC[C@H](COP(=O)([O-])OCC[N+](C)(C)C)OC(C)=O [16:0-02:0 PC, 1-Palmitoyl-2-Acetoyl-sn-Glycero-3-Phosphocholine]
Mean % Relative Cytotoxic Effect (LDH) ([1]; lipid 1000 μM (Table 4)): 23% | Mean % FD3 Permeation ([3]; lipid 1000 μM): 8% | activity at 1000 µM [2, 9]: 25%

CCCCCCCCCCCCCCCCOC[C@@H](O)COP(=O)([O-])OCC[N+](C)(C)C [C16 Lyso-PAF, 1-O-Hexadecyl-2-Hydroxy-sn-Glycero-3-Phosphocholine]
Mean % Relative Cytotoxic Effect (LDH) ([1]; lipid 1000 μM (Table 4)): 26% | % FITC-Dextran Permeation FD10 ([3]; lipid 1000 μM): 6% | % FITC-Dextran Permeation FD40 ([3]; lipid 1000 μM): 2% | % FITC-Dextran Permeation FD3 ([3]; lipid 1000 μM (Table 5)): 8% | Mean % FD3 Permeation ([3]; lipid 1000 μM): 6% | permeation of FD3 relative to negative controls [3]: enhanced the permeation of FD3 above that of the negative controls | activity at 1000 µM [2, 9]: 14%

CCCCCCCCCCCCCCCCOC[C@H](CO)OC(C)=O [C16-02:0 DG, 1-O-Hexadecyl-2-Acetoyl-sn-Glycerol]
Mean % Relative Cytotoxic Effect (LDH) ([1]; human, 1 h, 1000 μM): −3% | Mean % FD3 Permeation ([3]; lipid 1000 μM): 0% | activity at 1000 µM [2, 9]: 98%

CCCCCCCCCCCCCCCCOC[C@H](COP(=O)([O-])OCC[N+](C)(C)C)OC(=O)CCC [C16-04:0 PC, 1-O-Hexadecyl-2-Butyroyl-sn-Glycero-3-Phosphocholine]
Mean % Relative Cytotoxic Effect (LDH) ([1]; human, 1 h, 1000 μM): 22% | Mean % FD3 Permeation ([3]; lipid 1000 μM): 7% | permeation of FD3 relative to negative controls [3]: enhanced the permeation of FD3 above that of the negative controls | activity at 1000 µM [2, 9]: 0%

CCCCCCCC/C=C\CCCCCCCC(=O)O[C@H](COCCCCCCCCCCCCCCCC)COP(=O)([O-])OCC[N+](C)(C)C [C16-18:1 PC, 1-O-Hexadecyl-2-Oleoyl-sn-Glycero-3-Phosphocholine]
Mean % Relative Cytotoxic Effect (LDH) ([1]; human, 1 h, 1000 μM): −2% | Mean % FD3 Permeation ([3]; lipid 1000 μM): 0% | activity at 1000 µM [2, 9]: 86%

CCCCC/C=C\C/C=C\C/C=C\C/C=C\CCCC(=O)O[C@H](COCCCCCCCCCCCCCCCC)COP(=O)([O-])OCC[N+](C)(C)C [C16-20:4 PC, 1-O-Hexadecyl-2-Arachidonoyl-sn-Glycero-3-Phosphocholine]
Mean % Relative Cytotoxic Effect (LDH) ([1]; human, 1 h, 1000 μM): 0% | Mean % FD3 Permeation ([3]; lipid 1000 μM): 0% | activity at 1000 µM [2, 9]: 96%

CCCCCCCCCCCCC/C=C/[C@@H](O)[C@@H](N)CO[C@@H]1O[C@H](CO)[C@H](O)[C@H](O)[C@H]1O [Galactosyl sphingosine, D-Galactosyl-β1-1′-D-erythro-Sphingosine]
Cytotoxic Effect (LDH) 1 hr. Post-treatments [1, 6]: 2% | Cytotoxic Effect (LDH) 1 hr. Post-treatments [1, 7]: 3% | Cytotoxic Effect (LDH) 1 hr. Post-treatments [1, 8]: 2% | Cytotoxic Effect (LDH) 1 hr. Post-treatments [1, 4]: 26% | Mean TER Reduction 1 hr. Post-treatment ([2]; lipid 125 μM): 36% | Mean TER Reduction 1 hr. Post-treatment ([2]; lipid 250 μM): 43% | Mean TER Reduction 1 hr. Post-treatment ([2]; lipid 500 μM): 42% | Mean TER Reduction 1 hr. Post-treatment [2, 5]: 91%

CCCCCCCCCCCCC/C=C/[C@@H](O)[C@H](COP(=O)(O)O)NC(C)=O.N [N-acetoyl ceramide-1-phosphate, (2S,3R,4E)-2-Acetoylaminooctadec-4-Ene-1,3-Diol-1-Phosphate (Ammonium Salt)]
Cytotoxic Effect (LDH) 1 hr. Post-treatments [1, 6]: 2% | Cytotoxic Effect (LDH) 1 hr. Post-treatments [1, 7]: 2% | Cytotoxic Effect (LDH) 1 hr. Post-treatments [1, 8]: 2% | Cytotoxic Effect (LDH) 1 hr. Post-treatments [1, 4]: 2% | Mean TER Reduction 1 hr. Post-treatment ([2]; lipid 125 μM): 24% | Mean TER Reduction 1 hr. Post-treatment ([2]; lipid 250 μM): 23% | Mean TER Reduction 1 hr. Post-treatment ([2]; lipid 500 μM): 29% | Mean TER Reduction 1 hr. Post-treatment [2, 5]: 42%

Octylphenolpoly(ethyleneglycolether)x [Triton-X100, reference compound]
% Relative Cytotoxic Effect (LDH) ([1]; in the presence of FITC-Dextran FD3 (Table 6)): 99% | Cytotoxic Effect (LDH) 1 hr. Post-treatments [1, 10]: 100% | Mean % Relative Cytotoxic Effect (LDH) [1, 11]: 100% | % Cytotoxicity ([1]; treatment alone, no lipid, apical LDH release (Table 8), Triton 0.3%): 100% | % of the original TER value ([2]; controls of the further test of lipids at 250 μM to 1000 μM (b219-b220)): −6% | Mean TER Reduction 1 hr. Post-treatment [2, 10]: 100% | Mean % of Original TER Value [2, 11]: −7%
